The values below come from BindingDB's records for doi:10.1046/j.1471-4159.1997.68062263.x (Dynamique Des Systemes Neuroendocriniens, 1997).

Numbered stars: 1 amine (or outer) side, 2 acyl side, 3 side chain; on linkers, the order of the positions; unused ones are H or OH. Bridge positions count the residues as written; N and C are the ends. Square brackets hold non-standard residues; d marks the D form. Peptide text beside a SMILES is read from it. ξ: configuration not given here. Phe(4-CH2NHiPr) = CC(C)NCc1ccc(C[C@H](N)C(=O)O)cc1; X1 = CC(C)NCc1ccc(C[C@@H](N[*:1])C(=O)[*:2])cc1; d1Nal = N[C@H](Cc1cccc2ccccc12)C(=O)O; Thr(3ξ) = CC(O)[C@H](N)C(=O)O; ξF = NC(Cc1ccccc1)C(=O)O; ξK = NCCCCC(N)C(=O)O; ξT = CC(O)C(N)C(=O)O

Experiment [1] deals with Somatostatin receptor type 3 (Rattus norvegicus, UniProt P30936).
Sequence of Somatostatin receptor type 3 (P30936 whole entry): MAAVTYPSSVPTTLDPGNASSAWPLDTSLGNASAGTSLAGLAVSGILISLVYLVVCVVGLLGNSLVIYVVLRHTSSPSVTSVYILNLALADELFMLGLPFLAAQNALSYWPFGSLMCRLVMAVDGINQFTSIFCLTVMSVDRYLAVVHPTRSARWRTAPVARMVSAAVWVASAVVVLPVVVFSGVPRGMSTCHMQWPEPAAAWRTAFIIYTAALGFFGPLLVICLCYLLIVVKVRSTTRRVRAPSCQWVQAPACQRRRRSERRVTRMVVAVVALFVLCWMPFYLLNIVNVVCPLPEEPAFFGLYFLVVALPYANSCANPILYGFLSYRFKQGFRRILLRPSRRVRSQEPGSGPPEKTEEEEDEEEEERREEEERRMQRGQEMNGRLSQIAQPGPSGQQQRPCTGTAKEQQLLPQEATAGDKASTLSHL
The target of experiment [2] is Somatostatin receptor type 4 (Rattus norvegicus, UniProt P30937).
Sequence of Somatostatin receptor type 4 (P30937 whole entry): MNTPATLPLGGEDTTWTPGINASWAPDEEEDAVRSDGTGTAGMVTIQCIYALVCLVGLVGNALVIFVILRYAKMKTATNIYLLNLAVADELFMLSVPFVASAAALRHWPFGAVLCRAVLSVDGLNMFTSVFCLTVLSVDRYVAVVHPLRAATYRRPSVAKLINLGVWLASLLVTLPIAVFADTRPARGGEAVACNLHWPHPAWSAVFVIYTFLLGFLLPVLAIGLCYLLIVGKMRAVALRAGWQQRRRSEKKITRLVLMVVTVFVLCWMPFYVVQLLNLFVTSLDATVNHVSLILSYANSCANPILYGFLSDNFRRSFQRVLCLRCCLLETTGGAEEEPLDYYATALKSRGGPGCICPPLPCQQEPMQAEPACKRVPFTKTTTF
For experiment [3], the target named is Somatostatin receptor type 2 (Rattus norvegicus, UniProt P30680).
Sequence of Somatostatin receptor type 2 (P30680 whole entry): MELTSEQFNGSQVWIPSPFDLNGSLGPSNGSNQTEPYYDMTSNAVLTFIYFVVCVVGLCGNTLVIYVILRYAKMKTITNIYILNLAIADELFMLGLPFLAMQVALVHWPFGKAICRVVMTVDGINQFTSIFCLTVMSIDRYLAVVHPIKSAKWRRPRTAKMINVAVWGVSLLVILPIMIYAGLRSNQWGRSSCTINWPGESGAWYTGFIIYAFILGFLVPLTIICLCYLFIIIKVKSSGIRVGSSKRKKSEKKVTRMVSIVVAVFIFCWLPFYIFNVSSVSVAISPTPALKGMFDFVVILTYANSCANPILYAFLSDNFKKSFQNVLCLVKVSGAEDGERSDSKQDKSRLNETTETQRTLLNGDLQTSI
The target in experiment [4] is T1, Somatostatin receptor type 5 (Rattus norvegicus, UniProt P30938).
T1 sequence (P30938 whole entry): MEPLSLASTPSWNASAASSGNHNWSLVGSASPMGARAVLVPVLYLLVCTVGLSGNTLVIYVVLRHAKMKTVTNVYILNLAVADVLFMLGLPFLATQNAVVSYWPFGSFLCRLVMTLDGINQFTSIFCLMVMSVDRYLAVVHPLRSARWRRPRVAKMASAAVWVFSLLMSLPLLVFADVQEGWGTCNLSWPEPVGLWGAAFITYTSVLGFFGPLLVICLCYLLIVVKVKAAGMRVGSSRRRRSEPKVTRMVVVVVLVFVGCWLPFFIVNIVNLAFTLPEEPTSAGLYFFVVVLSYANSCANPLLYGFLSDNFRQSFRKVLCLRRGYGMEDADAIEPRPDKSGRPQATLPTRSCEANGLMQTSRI

Experiment [5] addresses Somatostatin receptor type 1 (Rattus norvegicus, UniProt P28646).

Sequence of Somatostatin receptor type 1 (P28646 whole entry): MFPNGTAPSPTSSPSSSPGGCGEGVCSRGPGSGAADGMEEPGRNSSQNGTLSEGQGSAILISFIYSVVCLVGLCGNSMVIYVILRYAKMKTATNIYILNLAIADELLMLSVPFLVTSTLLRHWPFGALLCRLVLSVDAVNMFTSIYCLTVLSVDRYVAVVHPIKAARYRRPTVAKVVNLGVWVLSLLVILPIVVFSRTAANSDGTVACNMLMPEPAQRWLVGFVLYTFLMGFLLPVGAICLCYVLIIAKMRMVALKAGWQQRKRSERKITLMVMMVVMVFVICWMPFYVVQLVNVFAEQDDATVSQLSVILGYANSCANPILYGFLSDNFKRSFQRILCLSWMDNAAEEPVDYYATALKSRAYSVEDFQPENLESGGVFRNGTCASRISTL

One may read the Ki as a dissociation constant, usually derived from enzyme kinetics or from competition with a known ligand. The low end stands for higher affinity, the high end for lower affinity. `C[C@@H](O)[C@H](NC(=O)[C@H](Cc1ccccc1)NC(=O)[C@@H](NC(=O)[C@H](CCCCN)NC(=O)[C@@H](Cc1c[nH]c2ccccc12)NC(=O)[C@H](Cc1ccccc1)NC(=O)[C@H](Cc1ccccc1)NC(=O)[C@H](N)Cc1ccccc1)[C@@H](C)O)C(N)=O` [CAS_133073-82-2] (H-[dF]FF[dW]KTFT-NH2): the Ki worked out at 4.6 nM in experiment [1], 8.4 nM in experiment [2], 163 nM in experiment [3] and 8.2 nM in experiment [4].

In the case of `CC(C)NCc1ccc(C[C@H]2NC(=O)[C@H](Cc3c[nH]c4ccccc34)NC(=O)C(Cc3ccccc3)NC(=O)C(Cc3ccccc3)NC(=O)C(CCCCN)NC(=O)[C@H](N)CSSC[C@H](C(=O)O)NC(=O)[C@@H](CO)NC(=O)[C@H](C(C)O)NC(=O)[C@@H](Cc3ccccc3)NC(=O)C(C(C)O)NC2=O)cc1` (stereo not given in full) [CH-275] (H-[dC][ξK][ξF][ξF]W[X1][ξT][dF][Thr(3ξ)][dS][dC]-OH; disulfide 1-11), the affinity in experiment [4] corresponds to a Ki of 279 nM.

With `CC(C)[C@H](NC(=O)[C@H](CCCCN)NC(=O)[C@@H](Cc1c[nH]c2ccccc12)NC(=O)[C@H](Cc1ccc(O)cc1)NC(=O)[C@H](Cc1ccccc1)NC(=O)[C@H](N)Cc1ccccc1)C(=O)N[C@@H](Cc1ccccc1)C(=O)N[C@H](Cc1cccc2ccccc12)C(N)=O` [BIM 23056] (H-[dF]FY[dW]KVF[d1Nal]-NH2), the Ki in experiment [1] amounted to 380 nM; in experiment [2], 83.8 nM; in experiment [5] it was 301 nM; in experiment [3], 835 nM.

For `CC(C)[C@H](NC(=O)[C@H](CCCCN)NC(=O)[C@@H](Cc1c[nH]c2ccccc12)NC(=O)[C@H](Cc1ccc(O)cc1)NC(=O)[C@H](Cc1ccccc1)NC(=O)[C@@H](N)Cc1ccccc1)C(=O)N[C@@H](Cc1ccccc1)C(=O)N[C@H](Cc1cccc2ccccc12)C(N)=O` [BIM 23056] (H-FFY[dW]KVF[d1Nal]-NH2), in experiment [4], the Ki worked out at 32.5 nM.

Turning to `CC(C)NCc1ccc(C[C@@H]2NC(=O)[C@@H](Cc3c[nH]c4ccccc34)NC(=O)[C@H](Cc3ccccc3)NC(=O)[C@H](Cc3ccccc3)NC(=O)[C@H](CCCCN)NC(=O)[C@@H](N)CSSC[C@@H](C(=O)O)NC(=O)[C@H](CO)NC(=O)[C@H]([C@@H](C)O)NC(=O)[C@H](Cc3ccccc3)NC(=O)[C@H]([C@@H](C)O)NC2=O)cc1` [CH-275] (H-CKFF[dW][Phe(4-CH2NHiPr)]TFTSC-OH; disulfide 1-11), the inhibition constant Ki in experiment [1] was found to be 577 nM; in experiment [2], 465 nM; in experiment [5] it was 45.7 nM; in experiment [3], 1000 nM.

In experiment [4], `C[C@H](N)C(=O)NCC(=O)N[C@@H]1CSSC[C@@H](C(=O)O)NC(=O)[C@H](CO)NC(=O)[C@@H]([C@@H](C)O)NC(=O)[C@H](Cc2ccccc2)NC(=O)[C@@H]([C@@H](C)O)NC(=O)[C@H](CCCCN)NC(=O)[C@@H](Cc2c[nH]c3ccccc23)NC(=O)[C@H](Cc2ccccc2)NC(=O)[C@@H](Cc2ccccc2)NC(=O)[C@H](CC(N)=O)NC(=O)[C@@H](CCCCN)NC1=O` returned a Ki of 2.6 nM.
